Experimental data from PMC4830539, “Chemical Inhibition of Histone Deacetylases 1 and 2 Induces Fetal Hemoglobin through Activation of GATA2” (PLoS ONE, 2016).
Read-outs that look alike come from different tables or passages of the source.

What was measured:
[1] = set-up: method as in earlier work; settings: dog; cited from earlier work
[2] = tested on: erythroid differentiation of BM cells; assay: Erythroid maturation stage by flow cytometry (TFRC and GYPA); format: cell-based, human; settings: for cells in TFRC/GYPA gate (gate not named): Fig 5A
Description: Flow cytometry was performed on a FC500 flow cytometer ([…]). Fetal hemoglobin protein was assayed using the Fetal Hemoglobin Test Kit (Life Technologies) according to manufacturer’s protocol. Samples were stained with FITC-conjugated mouse IgG1 anti-human HbF antibody (clone HbF-1, Life Technologies). Each sample was also stained with a FITC-conjugated mouse IgG1 isotype control antibody (clone X40, BD Biosciences) and used as a negative control. FETALtrol cells were used as positive controls (Trillium Diagnostics). TFRC and GYPA were detected on fresh cells by staining with 20 μL of PE-conjugated anti-human TFRC (clone M-A712, catalog 555537, BD Biosciences) and 0.5 μL of FITC- or APC-conjugated anti-human GYPA (clone GA-R2 (HIR2), catalog 559943 or 551336, BD Biosciences) in 200 μL PBS with 0.1% BSA for 40 min on ice. Forward and side scatter, or staining with 7AAD (catalog 559925, BD Biosciences), was used to identify viable cells.
To investigate the effects of HDAC1/2 inhibition on erythroid maturation, we followed differentiation by flow cytometry using TFRC and GYPA [38]. BM cells were cultured in CS1 expansion media for 7 days, yielding a pool of TFRC^negGYPA^neg cells composed of primitive and more differentiated hematopoietic progenitors of multiple lineages (Fig 4, ‘day 0’). These cells were then shifted to CS1 differentiation media containing either 1 μM of ACY-957 or vehicle control. […] The majority of vehicle control cells continued to differentiate over the next 3 days, becoming TFRC^posGYPA^pos by day 8. […] TFRC^posGYPA^mid cells are equivalent to proerythroblasts, while TFRC^posGYPA^pos cells include the more differentiated basophilic and polychromatic erythroblasts. Therefore, HDAC1/2 inhibition using 1 μM of ACY-957 was able to inhibit differentiation of proerythroblasts to basophilic erythroblasts in the liquid culture systems utilized in this study.

[3] = set-up: method as in earlier work; settings: monkey; cited from earlier work
[4] = tested on: GATA2 binding at the HBD promoter; assay: GATA2 ChIP-QPCR at the HBD promoter; format: cell-based, human; settings: 1 μM
Description: Cells were fixed in 1% formaldehyde for 15 minutes at room temperature. Crosslinking reaction was extinguished by adding glycine to 125 mM. Cells were washed three times in PBS, 0.5% lgepal CA-630, 1 mM phenylmethanesulfonyl fluoride (PMSF). Cell pellets were snap frozen on dry ice and stored at -80°C.
For ChIP-QPCR experiments, chromatin (11 μg) from vehicle (n = 1) or ACY-957 (n = 1) treated cells was fragmented by sonication, then immunoprecipitated (n = 3, each) using antibodies against histone H3 lysine 9 acetylation (3 μg, ab10812, Abcam), histone H2B lysine 5 acetylation (6 μL, ab40886, Abcam), histone H3 lysine 27 acetylation (3 μg, ab4729, Abcam), or GATA2 (6 μg, SC-9008, Santa Cruz). Specific genomic regions within immunoprecipitated and input DNA was detected using SYBR green QPCR with the following primer pairs:
GATA2 could affect HBG indirectly, through altering the expression of other factors which, in turn, act directly at the β-like globin gene cluster. […] To investigate this possibility, we looked at the β-like globin gene cluster in the GATA2 ChIP-Seq data presented above. Six statistically significant GATA2 binding peaks were identified in vehicle treated cells across the 70 kb region (Fig 9A); corresponding to four locus control region (LCR) hypersensitivity sites, a region in the HBB gene, and a region near the HBD gene promoter. […]

GATA2, GATA1, KLF1 mRNA = assay: Gene expression of candidate HBG modulators by QPCR in CS1; format: cell-based, human; settings: CS1, 1 μM
Description: Globin mRNA was detected using quantitative real time PCR (QPCR). Total RNA was isolated using RNeasy Micro Kit (Qiagen) with on-column DNase digestion, converted into cDNA using the High Capacity RNA-to-cDNA Kit (Life Technologies), diluted 5-fold with water, and 1 μL used as a template for QPCR. The percent of each β-like globin transcript was determined using the absolute standard curve method. Briefly, DNA corresponding to the full length transcript for each globin isoform was cloned into […] plasmid (GenScript, Piscataway NJ). Each plasmid was validated against each QPCR probe to ensure specificity. Plasmids were pooled at equal molar concentration and a dilution series spanning 8-logs was utilized as the standard curve. Throughout this work, ‘HBG mRNA (%)’ and ‘percent HBG mRNA’ refers to the abundance of HBG mRNA expressed relative to the sum of the abundances of all β-like globin transcripts, i.e. [HBG/(HBB+HBD+HBG+HBE)]*100. In cases where the transcript of interest was compared against the housekeeping gene ACTB, the comparative Ct ([…]) method was utilized. Probes used for QPCR: HBB (Hs00747223_g1), HBD (Hs00426283_m1), HBG (Hs00361131_g1, detects both HBG1 and HBG2), HBE (Hs00362215_g1), GATA1 (Hs01085823_m1), GATA2 (Hs00231119_m1), KLF1 (Hs00610592_m1), MYB (Hs00920556_m1), SOX6 (Hs00264525_m1), BCL11A (Hs01093197_m1), and ACTB (Hs99999903_m1). […]

[5] = CS1 differentiation media, 1 μM

- GATA2 binding at control region within the HBB gene [4]: unaffected
SMILES: Nc1ccc(-c2cccs2)cc1NC(=O)c1ccc2nc(N3CCNCC3)ccc2c1 [ACY-957]
- pharmacokinetic properties [1]: favorable
- erythroid differentiation by day 8 [2, 5]: accumulated at the TFRC^posGYPA^mid stage
- erythroid differentiation during the first 5 days [2, 5]: differentiated to the same extent as vehicle treated cells
- cells in TFRC/GYPA gate (gate not named) ([2]; Donor 1, CS1, day 5, 1 μM, first gate listed): 61%
- cells in TFRC/GYPA gate (gate not named) ([2]; Donor 1, CS1, day 5, 1 μM, second gate listed): 30%
- cells in TFRC/GYPA gate (gate not named) ([2]; Donor 2, CS1, day 5, 1 μM, first gate listed): 62%
- cells in TFRC/GYPA gate (gate not named) ([2]; Donor 2, CS1, day 5, 1 μM, second gate listed): 37%
- cells in TFRC/GYPA gate (gate not named) ([2]; Donor 3, CS1, day 5, 1 μM, first gate listed): 65%
- cells in TFRC/GYPA gate (gate not named) ([2]; Donor 3, CS1, day 5, 1 μM, second gate listed): 32%
- pharmacokinetic properties [3]: favorable
- increase in GATA2 binding at the HBD promoter [4]: 2 fold
- GATA1 and KLF1 mRNA (GATA2, GATA1, KLF1 mRNA; 4 days): unaffected
- GATA2 mRNA increase relative to control cells (GATA2, GATA1, KLF1 mRNA; day 4): 3.3 fold
